How the values were obtained:
[1] = Cytotoxicity determination in HepG2.2.15 cells (CCK-8); format: cell-based; details: human, 6 days treatment, CCK-8, highest concentration 100 uM
Summary of the method: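 HepG2.2.15 cells seeded at 5,000 cells/well in 2% FBS medium and exposed to compounds for 6 days (medium refreshed once), 8 three-fold dilutions from 100 uM. Viability read by CCK-8 after 2.5 h at 37 °C, absorbance 450 nm with 630 nm reference; CC50 calculated.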

HBV = assay: Anti-viral assay in HepG2.2.15 cells: HBV inhibitory activity (HBV DNA in culture medium by q-PCR); format: cell-based; details: Hepatitis B virus, HepG2.2.15, 144 h, HepG2.2.15 cells, 6 days treatment, HBV DNA in culture medium by q-PCR, highest concentration 10 uM; read-out: EC50
Summary of the method: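 HepG2.2.15 cells seeded at 40,000/well in 2% FBS medium, dosed next day for 6 days (medium refreshed once midway); 8-point 3-fold dilutions from 10 uM top. HBV DNA in culture medium extracted and quantified by q-PCR; EC50 calculated from dose-response.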

COC(=O)C1=C(C2CCN(c3ncc(C)c(C(=O)O)n3)CC2)NC(c2nccs2)=NC1c1ccc(Br)cc1Cl (single isomer, unassigned) [II-81-B, 2-(4-(6-(4-bromo-2-chlorophenyl)-5-(methoxycarbonyl)-2-(thiazol-2-yl)-3,6-dihydropyrimidin-4-yl)piperidin-1-yl)-5-methylpyrimidine-4-carboxylic Acid]
CC50 at 6 days [1]: 12.4 µM
EC50 (HBV): 0.054 µM

COC(=O)C1=C(C2CCN(c3ncc(C(=O)O)s3)CC2)NC(c2nccs2)=NC1c1ccc(F)c(F)c1Br (single isomer, unassigned) [II-82-B, 2-(4-(6-(2-Bromo-3,4-difluorophenyl)-5-(methoxycarbonyl)-2-(thiazol-2-yl)-3,6-dihydropyrimidin-4-yl)piperidin-1-yl)thiazole-5-carboxylic Acid]
CC50 at 6 days [1]: 9.48 µM
EC50 (HBV): 0.0091 µM

COC(=O)C1=C(C2CCN(c3ncc(C(=O)O)s3)CC2)NC(c2nccs2)=NC1c1cccc(F)c1Br (single isomer, unassigned) [II-83-B, 2-(4-(6-(2-Bromo-3-fluorophenyl)-5-(methoxycarbonyl)-2-(thiazol-2-yl)-3,6-dihydropyrimidin-4-yl)piperidin-1-yl)thiazole-5-carboxylic Acid]
CC50 at 6 days [1]: 2.84 µM
EC50 (HBV): 0.016 µM

COC(=O)C1=C(C2CCN(c3ncc(C(=O)O)s3)CC2)NC(c2nccs2)=NC1c1ccc(F)cc1Br (single isomer, unassigned) [II-84-B, 2-(4-(6-(2-Bromo-4-fluorophenyl)-5-(methoxycarbonyl)-2-(thiazol-2-yl)-3,6-dihydropyrimidin-4-yl)piperidin-1-yl)thiazole-5-carboxylic Acid]
CC50 at 6 days [1]: 14.9 µM
EC50 (HBV): 0.0064 µM

CCOC(=O)C1=C(C2CCN(c3nc(C(=O)O)co3)C2)NC(c2nccs2)=NC1c1ccc(F)c(F)c1Cl (single isomer, unassigned) [II-85-A, 2-(3-(6-(2-chloro-3,4-difluorophenyl)-5-(ethoxycarbonyl)-2-(thiazol-2-yl)-3,6-dihydropyrimidin-4-yl)pyrrolidin-1-yl)oxazole-4-carboxylic Acid]
CC50 at 6 days [1]: 4.49 µM
EC50 (HBV): 0.72 µM

CCOC(=O)C1=C(C2CN(c3nc(C(=O)O)co3)C2)NC(c2nccs2)=NC1c1ccc(F)c(F)c1Cl (single isomer, unassigned) [II-86-B, 2-(3-(6-(2-Chloro-3,4-difluorophenyl)-5-(ethoxycarbonyl)-2-(thiazol-2-yl)-3,6-dihydropyrimidin-4-yl)azetidin-1-yl)oxazole-4-carboxylic Acid]
CC50 at 6 days [1]: 9.4 µM
EC50 (HBV): 2.87 µM

COC(=O)C1=C(C2CN(C(=O)c3ccccc3)C2)NC(c2nccs2)=NC1c1ccc(F)cc1Cl (single isomer, unassigned) [II-87-A, Methyl 6-(1-benzoylazetidin-3-yl)-4-(2-chloro-4-fluorophenyl)-2-(thiazol-2-yl)-1,4-dihydropyrimidine-5-carboxylate]
CC50 at 6 days [1]: 9.86 µM
EC50 (HBV): 4.02 µM

COC(=O)C1=C(C2CN(C(=O)c3cnoc3C)C2)NC(c2nccs2)=NC1c1ccc(F)cc1Cl (single isomer, unassigned) [II-88-B, methyl 4-(2-chloro-4-fluorophenyl)-6-(1-(5-methylisoxazole-4-carbonyl)azetidin-3-yl)-2-(thiazol-2-yl)-1,4-dihydropyrimidine-5-carboxylate]
CC50 at 6 days [1]: 9.96 µM
EC50 (HBV): 2.05 µM

COC(=O)C1=C(C2CCN(c3cc(C(=O)O)c(C)cn3)CC2)NC(c2nccs2)=NC1c1ccc(F)cc1Cl (single isomer, unassigned) [II-89-B, 2-(4-(6-(2-Chloro-4-fluorophenyl)-5-(methoxycarbonyl)-2-(thiazol-2-yl)-3,6-dihydropyrimidin-4-yl)piperidin-1-yl)-5-methylisonicotinic Acid]
CC50 at 6 days [1]: 20.3 µM
EC50 (HBV): 0.009 µM

COC(=O)C1=C(C2CCN(c3ncc(N4CCC(C(=O)O)CC4)cn3)CC2)NC(c2nccs2)=NC1c1ccc(F)cc1Cl (single isomer, unassigned) [II-90-B, 1-(2-(4-(6-(2-chloro-4-fluorophenyl)-5-(methoxycarbonyl)-2-(thiazol-2-yl)-3,6-dihydropyrimidin-4-yl)piperidin-1-yl)pyrimidin-5-yl)piperidine-4-carboxylic acid]
CC50 at 6 days [1]: 19 µM
EC50 (HBV): 0.0054 µM

COC(=O)C1=C(C2CCN(c3ncc(N(C)C)c(C(=O)O)n3)CC2)NC(c2nccs2)=NC1c1ccc(F)c(F)c1Cl (single isomer, unassigned) [II-91-B, 2-(4-(6-(2-chloro-3,4-difluorophenyl)-5-(methoxycarbonyl)-2-(thiazol-2-yl)-3,6-dihydropyrimidin-4-yl)piperidin-1-yl)-5-(dimethylamino)pyrimidine-4-carboxylic Acid]
CC50 at 6 days [1]: 26.1 µM
EC50 (HBV): 0.012 µM

COC(=O)C1=C(C2CCN(c3ncc(N)c(C(=O)O)n3)CC2)NC(c2nccs2)=NC1c1ccc(F)c(F)c1Cl (single isomer, unassigned) [II-92-B, 5-amino-2-(4-(6-(2-chloro-3,4-difluorophenyl)-5-(methoxycarbonyl)-2-(thiazol-2-yl)-3,6-dihydropyrimidin-4-yl)piperidin-1-yl)pyrimidine-4-carboxylic Acid]
CC50 at 6 days [1]: 18.3 µM
EC50 (HBV): 0.007 µM

COC(=O)C1=C(C2CCN(c3cc(C(=O)O)c(N(C)C)cn3)CC2)NC(c2nccs2)=NC1c1ccc(F)c(F)c1Cl (single isomer, unassigned) [II-93-B, 2-(4-(6-(2-chloro-3,4-difluorophenyl)-5-(methoxycarbonyl)-2-(thiazol-2-yl)-3,6-dihydropyrimidin-4-yl)piperidin-1-yl)-5-(dimethylamino)isonicotinic Acid]
CC50 at 6 days [1]: 28.9 µM
EC50 (HBV): 0.0066 µM

COC(=O)C1=C(C2CCN(c3ncc(C)c(C(=O)O)n3)CC2)NC(c2nccs2)=NC1c1ccc(F)c(F)c1C (single isomer, unassigned) [II-94-B, 2-(4-(6-(3,4-Difluoro-2-methylphenyl)-5-(methoxycarbonyl)-2-(thiazol-2-yl)-3,6-dihydropyrimidin-4-yl)piperidin-1-yl)-5-methylpyrimidine-4-carboxylic Acid]
CC50 at 6 days [1]: 26.8 µM
EC50 (HBV): 0.0061 µM

COC(=O)C1=C(C2CCN(c3ncc(OC)c(C(=O)O)n3)CC2)NC(c2nccs2)=NC1c1ccc(F)c(F)c1C (single isomer, unassigned) [II-95-B, 2-(4-(6-(3,4-Difluoro-2-methylphenyl)-5-(methoxycarbonyl)-2-(thiazol-2-yl)-3,6-dihydropyrimidin-4-yl)piperidin-1-yl)-5-methoxypyrimidine-4-carboxylic Acid]
CC50 at 6 days [1]: 25.8 µM
EC50 (HBV): 0.0086 µM

CCOC(=O)C1=C(C2CCN(c3ncc(OCC)c(C(=O)O)n3)CC2)NC(c2nccs2)=NC1c1ccc(F)c(F)c1Cl (single isomer, unassigned) [II-96-B, 2-(4-(6-(2-chloro-3,4-difluorophenyl)-5-(ethoxycarbonyl)-2-(thiazol-2-yl)-3,6-dihydropyrimidin-4-yl)piperidin-1-yl)-5-ethoxypyrimidine-4-carboxylic Acid]
CC50 at 6 days [1]: 16.3 µM
EC50 (HBV): 0.0051 µM

CCOC(=O)C1=C(C2CCN(c3ncc(N(C)C)c(C(=O)O)n3)CC2)NC(c2nccs2)=NC1c1cccc(F)c1Br (single isomer, unassigned) [II-97-B, 2-(4-(6-(2-Bromo-3-fluorophenyl)-5-(ethoxycarbonyl)-2-(thiazol-2-yl)-3,6-dihydropyrimidin-4-yl)piperidin-1-yl)-5-(dimethylamino)pyrimidine-4-carboxylic Acid]
CC50 at 6 days [1]: 27.6 µM
EC50 (HBV): 0.014 µM

COC(=O)C1=C(C2CCN(c3ncc(C)c(C(=O)O)n3)CC2)NC(c2nccs2)=NC1c1cccc(F)c1Br (single isomer, unassigned) [II-98-B, 2-(4-(6-(2-Bromo-3-fluorophenyl)-5-(methoxycarbonyl)-2-(thiazol-2-yl)-3,6-dihydropyrimidin-4-yl)piperidin-1-yl)-5-methylpyrimidine-4-carboxylic Acid]
CC50 at 6 days [1]: 21.4 µM
EC50 (HBV): 0.02 µM

COC(=O)C1=C(C2CCN(c3ncc(C)c(C(=O)O)n3)CC2)NC(c2nccs2)=NC1c1ccc(F)cc1Br (single isomer, unassigned) [II-99-B, 2-(4-(6-(2-Bromo-4-fluorophenyl)-5-(methoxycarbonyl)-2-(thiazol-2-yl)-3,6-dihydropyrimidin-4-yl)piperidin-1-yl)-5-methylpyrimidine-4-carboxylic Acid]
CC50 at 6 days [1]: 20.7 µM
EC50 (HBV): 0.0073 µM

CCOC(=O)C1=C(C2CCN(c3ncc(N(C)C)c(C(=O)O)n3)CC2)NC(c2nccs2)=NC1c1ccc(F)cc1Br (single isomer, unassigned) [II-100-B, 2-(4-(6-(2-bromo-4-fluorophenyl)-5-(ethoxycarbonyl)-2-(thiazol-2-yl)-3,6-dihydropyrimidin-4-yl)piperidin-1-yl)-5-(dimethylamino)pyrimidine-4-carboxylic Acid]
CC50 at 6 days [1]: 24.5 µM
EC50 (HBV): 0.022 µM

COC(=O)C1=C(C2CCN(c3ccc(CCC(=O)O)cn3)CC2)NC(c2nccs2)=NC1c1ccc(F)cc1Cl (single isomer, unassigned) [II-101-B, 3-(6-(4-(6-(2-Chloro-4-fluorophenyl)-5-(methoxycarbonyl)-2-(thiazol-2-yl)-3,6-dihydropyrimidin-4-yl)piperidin-1-yl)pyridin-3-yl)propanoic Acid]
CC50 at 6 days [1]: 16.6 µM
EC50 (HBV): < 0.0046 µM

CCOC(=O)Cc1ccnc(N2CCC(C3=C(C(=O)OC)C(c4ccc(F)cc4Cl)N=C(c4nccs4)N3)CC2)n1 (single isomer, unassigned) [XI-13-S, Methyl 4-(2-chloro-4-fluorophenyl)-6-(1-(4-(2-ethoxy-2-oxoethyl)pyrimidin-2-yl)piperidin-4-yl)-2-(thiazol-2-yl)-1,4-dihydropyrimidine-5-carboxylate]
CC50 at 6 days [1]: > 100 µM
EC50 (HBV): 0.15 µM
